Assay results published in US6706664B1, “Benzoxazole compounds, process for the preparation thereof and herbicides” (UBE Industries, Ltd., priority 1999, dated 2004).

Assays:
Design in all cases: key: 0: normal development; 1: Less damaged; 2: Slightly damaged; 3: Moderately damaged; 4: Severely damaged; 5: All killed
[1] = test system: Large crabgrass; test: Foliar spread test for upland field; format: in vivo, Digitaria adscendens; conditions: foliar spray 500 ppm, 3 weeks, rank vs non-treated
Procedure, shortened: (§1)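 Seeds are planted in pots of volcanic ash soil and grown roughly 2 weeks under glass. Foliage then receives a uniform spray of compound at 500 ppm in water with 0.5% surfactant. Herbicidal damage is rated 0–5 after 3 weeks at an average 25° C.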

[2] = test system: sugar beat; test: Foliar spread test for upland field; format: in vivo; conditions: foliar spray 500 ppm, 3 weeks, rank vs non-treated
Procedure, shortened: (§2)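 Crops and weeds grown about 2 weeks in volcanic ash soil in a glasshouse, then sprayed with wettable-powder formulations diluted to 500 ppm in water with 0.5% surfactant. After 3 weeks at 25 °C, injury scored visually 0 (normal) to 5 (all killed).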

[3] = test system: wheat; test: Foliar spread test for upland field; format: in vivo; conditions: foliar spray 500 ppm, 3 weeks, rank vs non-treated
Procedure, shortened: as §2

[4] = test system: morning glory; test: Foliar spread test for upland field; format: in vivo, Ipomoea spps.; conditions: foliar spray 500 ppm, 3 weeks, rank vs non-treated
Procedure, shortened: as §1

[5] = test system: sugar beat; test: Soil treatment test for upland field; format: in vivo; conditions: 500 g/ha, glass house 25° C., 3 weeks
Procedure, shortened: (§3)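 Pre-emergence: seeds sown in Ube alluvial soil in pots, then soil surface sprayed with wettable-powder formulation diluted in water with 0.05% surfactant at 500 g/ha. Plants kept in glasshouse at average 25° C for 3 weeks; injury scored 0 (normal) to 5 (all killed).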

[6] = test system: soybean; test: Soil treatment test for upland field; format: in vivo; conditions: 500 g/ha, glass house 25° C., 3 weeks
Procedure, shortened: as §3

[7] = test system: cotton; test: Soil treatment test for upland field; format: in vivo; conditions: 500 g/ha, glass house 25° C., 3 weeks
Procedure, shortened: as §3

[8] = test system: solgum; test: Soil treatment test for upland field; format: in vivo; conditions: 500 g/ha, glass house 25° C., 3 weeks
Procedure, shortened: as §3

[9] = test system: corn; test: Soil treatment test for upland field; format: in vivo; conditions: 500 g/ha, glass house 25° C., 3 weeks
Procedure, shortened: as §3

[10] = test system: wheat; test: Soil treatment test for upland field; format: in vivo; conditions: 500 g/ha, glass house 25° C., 3 weeks
Procedure, shortened: as §3

[11] = test system: bulrush; test: Herbicidal test for paddy field; format: in vivo, Scrips juncoides; conditions: paddy field pot, 500 g/ha dropwise at 1.5 leaf stage of barnyardgrass, 3 weeks, rank vs non-treated
Procedure, shortened: (§4)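 Post-flooding water application of 500 g/ha, given at 1.5-leaf barnyardgrass, to plants in Ube alluvial soil held under 3 cm of water. Ratings of 0 to 5 relative to untreated controls were made after three weeks in a glasshouse.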

[12] = test system: young rice plant; test: Herbicidal test for paddy field; format: in vivo; conditions: paddy field pot, 500 g/ha dropwise at 1.5 leaf stage of barnyardgrass, 3 weeks, rank vs non-treated
Procedure, shortened: as §4

[13] = test system: barnyardgrass; test: Foliar spread test for upland field; format: in vivo, Echinochloa crusgalli; conditions: foliar spray 500 ppm, 3 weeks, rank vs non-treated
Procedure, shortened: as §1

[14] = test system: soybean; test: Foliar spread test for upland field; format: in vivo; conditions: foliar spray 500 ppm, 3 weeks, rank vs non-treated
Procedure, shortened: as §2

[15] = test system: cotton; test: Foliar spread test for upland field; format: in vivo; conditions: foliar spray 500 ppm, 3 weeks, rank vs non-treated
Procedure, shortened: as §2

Structure (SMILES)	Effects Large crabgrass [1]	Effects Sugar beat [2]	Effects Wheat [3]	Effects Morning glory [4]	Effects Sugar beat [5]	Effects Soybean [6]	Effects Cotton [7]	Effects Solgum [8]	Effects Corn [9]	Effects Wheat [10]	Effect Bulrush [11]	Effect Young rice plant [12]	Effects Barnyardgrass [13]	Effects Soybean [14]	Effects Cotton [15]
CCCC(Oc1cccc(C(F)(F)F)c1)c1nc2cc(F)c(C(F)(F)F)cc2o1 (stereo not drawn) [Compound 474]	5	5	2	5	5	2	1	1	2	1	–	–	–	–	–
CCC(Oc1cccc(C#N)c1)c1nc2cc(F)c(Cl)cc2o1 (stereo not drawn) [Compound 498]	3	4	2	–	5	1	1	1	0	1	3	1	–	–	–
CCC(Oc1cccc(C(F)(F)F)c1)c1nc2cc(C#N)c(C#N)cc2o1 (stereo not drawn) [Compound 315]	2	5	2	3	5	1	1	1	2	1	2	1	–	–	–
CCC(Oc1cccc(C(F)(F)F)c1)c1nc2cc(Cl)ccc2o1 (stereo not drawn) [Compound 140]	2	3	2	3	3	0	0	1	0	0	–	1	2	3	3
CCC(Oc1ccc(F)c(C(F)(F)F)c1)c1nc2cc(C(F)(F)F)ccc2o1 (stereo not drawn) [Compound 197]	3	–	2	4	5	–	3	2	2	2	–	3	1	5	3
CCCC(Oc1cccc(C(F)(F)F)c1)c1nc2cc(F)c(Cl)cc2o1 (stereo not drawn) [Compound 497]	2	5	2	–	5	1	1	1	1	1	2	2	–	–	2
CCCC(Oc1ccc(F)c(C(F)(F)F)c1)c1nc2cc(F)c(Cl)cc2o1 (stereo not drawn) [Compound 494]	–	3	1	2	5	0	0	1	1	1	3	–	–	–	2
CC(Oc1ccc(F)c(C(F)(F)F)c1)c1nc2cc(Cl)ccc2o1 (stereo not drawn) [Compound 137]	1	5	1	2	2	0	0	1	1	1	3	1	–	3	2
